Experimental data published in patent US10329302B2, “Bicyclic-fused heteroaryl or aryl compounds” (Pfizer Inc., priority 2014, dated 2019).

What follows are compounds tested against human IRAK4 kinase domain (aa 154-460) (Homo sapiens (Human), UniProt Q9NWZ3) (assay: IRAK4 Enzymatic DELFIA Assay, Protocol B). Details: human IRAK4 kinase domain (aa 154-460), 0.6 mM ATP (KM); read-out: IRAK4 DELFIA Protocol B IC50.
Type: biochemical
Description: IRAK4 Enzymatic DELFIA Assay, Protocol B.

Chain of human IRAK4 kinase domain (aa 154-460) (Q9NWZ3 154-460): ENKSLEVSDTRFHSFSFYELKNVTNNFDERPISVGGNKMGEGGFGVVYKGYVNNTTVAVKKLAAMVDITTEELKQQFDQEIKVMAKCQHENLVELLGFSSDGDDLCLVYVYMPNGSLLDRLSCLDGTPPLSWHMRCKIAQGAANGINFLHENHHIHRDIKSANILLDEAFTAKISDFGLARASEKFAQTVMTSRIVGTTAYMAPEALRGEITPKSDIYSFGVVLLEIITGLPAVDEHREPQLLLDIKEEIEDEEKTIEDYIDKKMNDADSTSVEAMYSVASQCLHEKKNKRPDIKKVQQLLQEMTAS

Compound | IC50
CC(C)Oc1cc2c(O[C@@H]3C[C@H]4C[C@@H]3CN(C(=O)CC#N)C4)nccc2cc1C(N)=O [Example 68, 1-{[(1R,5R,6R)-3-(cyanoacetyl)-3-azabicyclo[3.2.1]oct-6-yl]oxy}-7-(propan-2-yloxy)isoquinoline-6-carboxamide] | 320 nM
CC(C)Oc1cc2c(OC[C@@H]3CCN(C(=O)CC#N)C3)nccc2cc1C(N)=O [Example 70, 1-{[(3R)-1-(cyanoacetyl)pyrrolidin-3-yl]methoxy}-7-(propan-2-yloxy)isoquinoline-6-carboxamide] | 423 nM
CC(C)Oc1cc2c(OC3C[C@@H]4CN[C@H]3C4)nccc2cc1C(N)=O (stereo partly drawn) [Example 72, 1-[(1S,4R)-2-azabicyclo[2.2.1]hept-6-yloxy]-7-(propan-2-yloxy)isoquinoline-6-carboxamide] | 2620 nM
CC(C)Oc1cc2c(O[C@H]3C[C@@H]4C[C@H]3CN4C(=O)CC#N)nccc2cc1C(N)=O [Example 74, 1-{[(1S,4S,5S)-2-(cyanoacetyl)-2-azabicyclo[2.2.1]hept-5-yl]oxy}-7-(propan-2-yloxy)isoquinoline-6-carboxamide] | 43 nM
CC(C)Oc1cc2c(OC[C@@H]3CN(C(=O)CC#N)CCO3)nccc2cc1C(N)=O [Example 75, 1-{[(2S)-4-(cyanoacetyl)morpholin-2-yl]methoxy}-7-(propan-2-yloxy)isoquinoline-6-carboxamide] | 4040 nM
CC(C)Oc1cc2c(OCC3(F)CCN(C(=O)CC#N)CC3)nccc2cc1C(N)=O [Example 76, 1-{[1-(cyanoacetyl)-4-fluoropiperidin-4-yl]methoxy}-7-(propan-2-yloxy)isoquinoline-6-carboxamide] | 1720 nM
CC(C)Oc1cc2c(OC[C@@]34C[C@@H]3CN(C(=O)CC#N)C4)nccc2cc1C(N)=O [Example 77, 1-{[(1S,5S)-3-(cyanoacetyl)-3-azabicyclo[3.1.0]hex-1-yl]methoxy}-7-(propan-2-yloxy)isoquinoline-6-carboxamide] | 468 nM
CC(C)Oc1cc2c(OC[C@H]3CN(C(=O)CC#N)CCO3)nccc2cc1C(N)=O [Example 78, 1-{[(2R)-4-(cyanoacetyl)morpholin-2-yl]methoxy}-7-(propan-2-yloxy)isoquinoline-6-carboxamide] | 4740 nM
CC(C)Oc1cc2c(O[C@H]3CC[C@@H]4CN(C(=O)CC#N)C[C@@H]43)nccc2cc1C(N)=O [Example 79, 1-{[(3aR,4S,6aS)-2-(cyanoacetyl)octahydrocyclopenta[c]pyrrol-4-yl]oxy}-7-(propan-2-yloxy)isoquinoline-6-carboxamide] | 457 nM
CC[C@H]1CN(C(=O)CC#N)C[C@@H]1COc1nccc2cc(C(N)=O)c(OC(C)C)cc12 [Example 80, 1-{[(3R,4R)-1-(cyanoacetyl)-4-ethylpyrrolidin-3-yl]methoxy}-7-(propan-2-yloxy)isoquinoline-6-carboxamide] | 333 nM
CC(C)Oc1cc2c(O[C@H]3C[C@@H]4C[C@H]3CN(C(=O)CC#N)C4)nccc2cc1C(N)=O [Example 81, 1-{[(1S,5S,6S)-3-(cyanoacetyl)-3-azabicyclo[3.2.1]oct-6-yl]oxy}-7-(propan-2-yloxy)isoquinoline-6-carboxamide] | 479 nM
CC(C)Oc1cc2c(OCC3(C)CCN(C(=O)CC#N)C3)nccc2cc1C(N)=O (stereo not shown) [Example 82, 1-{[1-(cyanoacetyl)-3-methylpyrrolidin-3-yl]methoxy}-7-(propan-2-yloxy)isoquinoline-6-carboxamide] | 969 nM
CC(C)Oc1cc2c(OC[C@@H]3COCCN3C(=O)CC#N)nccc2cc1C(N)=O [Example 83, 1-{[(3S)-4-(cyanoacetyl)morpholin-3-yl]methoxy}-7-(propan-2-yloxy)isoquinoline-6-carboxamide] | 175 nM
CO[C@H]1CN(C(=O)CC#N)C[C@@H]1COc1nccc2cc(C(N)=O)c(OC(C)C)cc12 [Example 84, 1-{[(3R,4R)-1-(cyanoacetyl)-4-methoxypyrrolidin-3-yl]methoxy}-7-(propan-2-yloxy)isoquinoline-6-carboxamide] | 534 nM
CC(C)Oc1cc2c(OC[C@H]3CN(C(=O)CC#N)C[C@@H]3C)nccc2cc1C(N)=O [Example 85, 1-{[(3R,4R)-1-(cyanoacetyl)-4-methylpyrrolidin-3-yl]methoxy}-7-(propan-2-yloxy)isoquinoline-6-carboxamide] | 610 nM
CC(C)Oc1cc2c(OCC3(C)CCN(C(=O)CC#N)CC3)nccc2cc1C(N)=O [Example 86, 1-{[1-(cyanoacetyl)-4-methylpiperidin-4-yl]methoxy}-7-(propan-2-yloxy)isoquinoline-6-carboxamide] | 216 nM
CC(C)Oc1cc2c(OC[C@@H]3[C@H]4CN(C(=O)CC#N)C[C@@H]34)ccnc2cc1C(N)=O [Example 87, 4-{[(1R,5S,6r)-3-(cyanoacetyl)-3-azabicyclo[3.1.0]hex-6-yl]methoxy}-6-(propan-2-yloxy)quinoline-7-carboxamide] | 2620 nM
CC(C)Oc1cc2c(OC[C@H]3CN(C(=O)CC#N)C[C@@H]3C)ccnc2cc1C(N)=O [Example 88, 4-{[(3R,4R)-1-(cyanoacetyl)-4-methylpyrrolidin-3-yl]methoxy}-6-(propan-2-yloxy)quinoline-7-carboxamide] | 292 nM
CC(C)Oc1cc2c(O[C@@H]3C[C@H]4C[C@@H]3CN(C(=O)CC#N)C4)ccnc2cc1C(N)=O [Example 89, 4-{[(1R,5R,6R)-3-(cyanoacetyl)-3-azabicyclo[3.2.1]oct-6-yl]oxy}-6-(propan-2-yloxy)quinoline-7-carboxamide] | 395 nM

Compound | IC50
CC(C)Oc1cc2c(OC[C@@]34C[C@@H]3CN(C(=O)CC#N)C4)ccnc2cc1C(N)=O [Example 90, 4-{[(1S,5S)-3-(cyanoacetyl)-3-azabicyclo[3.1.0]hex-1-yl]methoxy}-6-(propan-2-yloxy)quinoline-7-carboxamide] | 438 nM
CC(C)Oc1cc2c(OCC3(C)CCN(C(=O)CC#N)CC3)ccnc2cc1C(N)=O [Example 91, 4-{[1-(cyanoacetyl)-4-methylpiperidin-4-yl]methoxy}-6-(propan-2-yloxy)quinoline-7-carboxamide] | 489 nM
CC(C)Oc1cc2c(OC[C@H]3CCCN(C(=O)CC#N)C3)ccnc2cc1C(N)=O [Example 93, 4-{[(3S)-1-(cyanoacetyl)piperidin-3-yl]methoxy}-6-(propan-2-yloxy)quinoline-7-carboxamide] | 1520 nM
CC(C)Oc1cc2c(OC[C@@]34C[C@@H]3CN(C(=O)CC#N)C4)ccnc2cc1C(N)=O [Example 94, 4-{[(1S,5S)-3-(cyanoacetyl)-3-azabicyclo[3.1.0]hex-1-yl]methoxy}-6-(propan-2-yloxy)quinoline-7-carboxamide] | 526 nM
CC(C)Oc1cc2c(OCC3(F)CCN(C(=O)CC#N)CC3)ccnc2cc1C(N)=O [Example 95, 4-{[1-(cyanoacetyl)-4-fluoropiperidin-4-yl]methoxy}-6-(propan-2-yloxy)quinoline-7-carboxamide] | 3170 nM
CO[C@H]1CN(C(=O)CC#N)C[C@@H]1COc1ccnc2cc(C(N)=O)c(OC(C)C)cc12 [Example 96, 4-{[(3R,4R)-1-(cyanoacetyl)-4-methoxypyrrolidin-3-yl]methoxy}-6-(propan-2-yloxy)quinoline-7-carboxamide] | 301 nM
CC(C)Oc1cc2c(OC[C@@H]3CCCN(C(=O)CC#N)C3)ccnc2cc1C(N)=O [Example 97, 4-{[(3R)-1-(cyanoacetyl)piperidin-3-yl]methoxy}-6-(propan-2-yloxy)quinoline-7-carboxamide] | 2740 nM
CC(C)Oc1cc2c(OC[C@@H]3CN(C(=O)CC#N)CCO3)ccnc2cc1C(N)=O [Example 98, 4-{[(2S)-4-(cyanoacetyl)morpholin-2-yl]methoxy}-6-(propan-2-yloxy)quinoline-7-carboxamide] | 575 nM
CC(C)Oc1cc2c(OCC3CCCCN3C(=O)CC#N)ccnc2cc1C(N)=O (stereo not shown) [Example 99, 4-{[1-(cyanoacetyl)piperidin-2-yl]methoxy}-6-(propan-2-yloxy)quinoline-7-carboxamide] | 524 nM
CC(C)Oc1cc2c(OCC3CCN(C(=O)CC#N)CC3)ccnc2cc1C(N)=O [Example 100, 4-{[1-(cyanoacetyl)piperidin-4-yl]methoxy}-6-(propan-2-yloxy)quinoline-7-carboxamide] | 482 nM
CC(C)Oc1cc2c(O[C@H]3C[C@@H]4C[C@H]3CN4)nccc2cc1C(N)=O [Example 101, 1-[(1S,4S,5S)-2-azabicyclo[2.2.1]hept-5-yloxy]-7-(propan-2-yloxy)isoquinoline-6-carboxamide] | 1180 nM
CC(C)Oc1cc2c(OC[C@@H]3CC(C)C(=O)N3)nccc2cc1C(N)=O (stereo partly drawn) [Example 107, 1-{[(2S)-4-methyl-5-oxopyrrolidin-2-yl]methoxy}-7-(propan-2-yloxy)isoquinoline-6-carboxamide] | 16 nM
CC(C)Oc1cc2c(O[C@@H]3C[C@@H]4CN[C@H]3C4)nccc2cc1C(N)=O [Example 108, 1-[(1S,4R,6R)-2-azabicyclo[2.2.1]hept-6-yloxy]-7-(propan-2-yloxy)isoquinoline-6-carboxamide] | 1870 nM
CC(C)Oc1cc2c(O[C@H]3C[C@@H]4CN[C@H]3C4)nccc2cc1C(N)=O [Example 109, 1-[(1S,4R,6S)-2-azabicyclo[2.2.1]hept-6-yloxy]-7-(propan-2-yloxy)isoquinoline-6-carboxamide] | 1910 nM
CC(C)Oc1cc2c(OCC3CNC(=O)C3)nccc2cc1C(N)=O (stereo not shown) [Example 111, 1-[(5-oxopyrrolidin-3-yl)methoxy]-7-(propan-2-yloxy)isoquinoline-6-carboxamide] | 196 nM
CC(C)Oc1cc2c(OC[C@@H]3CCNC3)cccc2cc1C(N)=O [Example 115, 3-(propan-2-yloxy)-5-[(3R)-pyrrolidin-3-ylmethoxy]naphthalene-2-carboxamide] | 61 nM
CC(C)Oc1cc2c(OC[C@@H]3CCNC3)nccc2cc1C(N)=O [Example 117, 7-(propan-2-yloxy)-1-[(3R)-pyrrolidin-3-ylmethoxy]isoquinoline-6-carboxamide] | 136 nM
CC(C)Oc1cc2c(OC[C@@H]3CCN3)nccc2cc1C(N)=O [Example 119, 1-[(2S)-azetidin-2-ylmethoxy]-7-(propan-2-yloxy)isoquinoline-6-carboxamide] | 1430 nM
